# pIC50: −log10 of the molar value.
# Tests used:
# Assay type in all cases: cell-based
# HL60/RV, MDR + AML = assay: In vitro assays - tubulysin free drugs, CellTiter-Glo growth inhibition; conditions: Homo sapiens, HL-60, 96 h
# Experimental: (§1) In vitro assays. Cells cultured in log-phase growth were seeded for 24 h in 96-well plates containing 150 μL RPMI 1640 supplemented with 20% FBS. Serial dilutions of antibody-drug conjugates in cell culture media were prepared at 4× working concentrations; 50 μL of each dilution was added to the 96-well plates. Following addition of ADC, cells were incubated with test articles for 4 d at 37° C. After 96 h, growth inhibition was assessed by CellTiter-Glo® (Promega, Madison, WI) and luminescence was measured on a plate reader. The IC50 value, determined in triplicate, is defined here as the concentration that results in a 50% reduction in cell growth relative to untreated controls.
# (§2) In vitro assays—tubulysin free drugs. Cells were treated for 96 hours with tubulysin ether analogs (40-42) or tubulysin M (7), then assessed for viability as described in the methods.
# (§3) The tubulysin ester analogs (133-137) and unsaturated ether analogs (176-179) were tested in vitro for potency relative to tubulysin M (7), following a 96 hour exposure. As shown by IC50 values (nM) of Table 2, Tubulysin esters 133-136 performed comparably to tubulysin M, with similar potencies across of the cell lines.
# (§4) A series of analogues of the ethyl ether tubulysin compound TubOEt (41) were synthesized on solid phase lanterns that maintain the ethyl ether substitution, while either varying the residue at the Ile position (203-215) or the Mep position (216-221). Following cleavage from the solid phase, the analogues were obtained in >85% purity and tested without further purification. The compounds were tested in vitro for potency relative to a sample of TubOEt synthesized in parallel on a lantern (41-lantern), following a 96 hour exposure, with IC5O values expressed in nM (Table 3). While in many cases an attenuation in activity was observed relative to 41-lantern, some well-tolerated substitutions were found. […] While this stereochemical preference is not observed when Ile is replaced with O-methyl threonine (207) or O-methyl allothreonine (206), bulkier substituents led to a greater differentiation. […] Replacement of the Mep residue was generally less-well tolerated.
# HL60, AML = assay: as above; conditions: Homo sapiens, HL-60, 96 h
# Experimental: as §1, §2, §3, §4
# L540cy, HL = assay: as above; conditions: L540cy, 96 h
# Experimental: as §1, §2, §3, §4
# Karpas299, ALCL = assay: as above; conditions: Homo sapiens, KARPAS-299, 96 h, free drug
# Experimental: as §1, §2, §3
# L428, MDR + HL = assay: as above; conditions: Homo sapiens, L-428, 96 h, free drug
# Experimental: as §1, §2, §3
# [1] = tested on: Karpas299, L540cy, L428, HL60, HL60/RV cell lines; assay: In vitro assays - tubulysin free drugs, statements across the cell line panel; conditions: for potency relative to tubulysin M (7), in words: Table 2 cell lines, 96 hour exposure
# Experimental: as §1, §2
# The ethyl ether and tubulysin M maintained the highest level of potency in the context of MDR+L428 and HL60/RV cell lines.
# as §3
# [2] = tested on: HepG2, L540cy, Ramos, U266, HL60, HL60/RV cell lines; assay: In vitro assays - TubOEt analogues, statements across the cell line panel; conditions: Table 3 cell lines, 96 hour exposure
# Experimental: as §1, §4
# U266 MM = assay: In vitro assays - TubOEt analogues, CellTiter-Glo growth inhibition; conditions: Homo sapiens, U-266; Table 3; lantern-made analogues >85% purity, 96 hour exposure
# Experimental: as §1, §4
# HepG2, HCC = assay: as above; conditions: Homo sapiens, Table 3, lantern-made analogues >85% purity, 96 hour exposure
# Experimental: as §1, §4
# Ramos, NHL = assay: as above; conditions: Homo sapiens, Table 3, lantern-made analogues >85% purity, 96 hour exposure
# Experimental: as §1, §4
# [3] = Table 2, free drug, 96 hour exposure
# [4] = Table 3, lantern-made analogues >85% purity, 96 hour exposure
# [5] = Table 1 (examples), free drug, 96 hours
Structure (SMILES),"pIC50 (HL60/RV, MDR + AML; [3])","pIC50 (HL60, AML; [3])","pIC50 (L540cy, HL; [3])","pIC50 (Karpas299, ALCL; Table 2, 96 hour exposure)","pIC50 (L428, MDR + HL; Table 2, 96 hour exposure)","potency relative to tubulysin M (7), in words [1]","potency / cytotoxicity of TubOEt analogues, in words [2]",pIC50 (U266 MM),"pIC50 (HepG2, HCC)","pIC50 (Ramos, NHL)","pIC50 (HL60/RV, MDR + AML; [4])","pIC50 (HL60, AML; [4])","pIC50 (L540cy, HL; [4])",also measured
"C=CCO[C@H](C[C@H](C(C)C)N(C)C(=O)[C@@H](NC(=O)[C@H]1CCCCN1C)[C@@H](C)CC)c1nc(C(=O)N[C@@H](Cc2ccccc2)C[C@H](C)C(=O)O)cs1 [Compound 177, (2S,4R)-4-(2-((1R,3R)-1-(allyloxy)-3-((2S,3S)—N,3-dimethyl-2-((R)-1-methylpiperidine-2-carboxamido)pentanamido)-4-methylpentyl)thiazole-4-carboxamido)-2-methyl-5-phenylpentanoic acid]",8.05,10.00,9.92,10.70,9.82,comparable potency,,,,,,,,
"C=C(C)CO[C@H](C[C@H](C(C)C)N(C)C(=O)[C@@H](NC(=O)[C@H]1CCCCN1C)[C@@H](C)CC)c1nc(C(=O)N[C@@H](Cc2ccccc2)C[C@H](C)C(=O)O)cs1 [Compound 176, (2S,4R)-4-(2-((1R,3R)-3-((2S,3S)—N,3-dimethyl-2-((R)-1-methylpiperidine-2-carboxamido)pentanamido)-4-methyl-1-((2-methylallyl)oxy)pentyl)thiazole-4-carboxamido)-2-methyl-5-phenylpentanoic acid]",8.22,10.15,10.22,9.92,9.92,comparable potency,,,,,,,,
"CCO[C@H](C[C@H](C(C)C)N(C)C(=O)[C@@H](NC(=O)C12CC(CCN1C)C2)[C@@H](C)CC)c1nc(C(=O)N[C@@H](Cc2ccccc2)C[C@H](C)C(=O)O)cs1 [Compound 217, (2S,4R)-4-(2-((1R,3R)-3-((2S,3S)—N,3-dimethyl-2-(2-methyl-2-azabicyclo[3.1.1]heptane-1-carboxamido)pentanamido)-1-ethoxy-4-methylpentyl)thiazole-4-carboxamido)-2-methyl-5-phenylpentanoic acid]",,,,,,,most potent compounds obtained in this series,9.40,8.70,9.40,6.61,8.40,9.00,
"CCO[C@H](C[C@H](C(C)C)N(C)C(=O)[C@@H](NC(=O)[C@H]1CCCCN1C)C1CCCC1)c1nc(C(=O)N[C@@H](Cc2ccccc2)C[C@H](C)C(=O)O)cs1 [Compound 204, (2S,4R)-4-(2-((1R,3R)-3-((S)-2-cyclopentyl-N-methyl-2-((R)-1-methylpiperidine-2-carboxamido)acetamido)-1-ethoxy-4-methylpentyl)thiazole-4-carboxamido)-2-methyl-5-phenylpentanoic acid]",,,,,,,potent,10.00,8.70,9.70,7.40,9.00,9.40,
"CC[C@H](C)[C@H](NC(=O)[C@H]1CCCCN1C)C(=O)N(C)[C@H](C[C@@H](OCc1ccccc1)c1nc(C(=O)N[C@@H](Cc2ccccc2)C[C@H](C)C(=O)O)cs1)C(C)C [Compound 179, (2S,4R)-4-(2-((1R,3R)-1-(benzyloxy)-3-((2S,3S)—N,3-dimethyl-2-((R)-1-methylpiperidine-2-carboxamido)pentanamido)-4-methylpentyl)thiazole-4-carboxamido)-2-methyl-5-phenylpentanoic acid]",7.62,9.40,9.40,10.10,9.24,attenuated in potency,,,,,,,,
"C#CCO[C@H](C[C@H](C(C)C)N(C)C(=O)[C@@H](NC(=O)[C@H]1CCCCN1C)[C@@H](C)CC)c1nc(C(=O)N[C@@H](Cc2ccccc2)C[C@H](C)C(=O)O)cs1 [Compound 178, (2S,4R)-4-(2-((1R,3R)-3-((2S,3S)—N,3-dimethyl-2-((R)-1-methylpiperidine-2-carboxamido)pentanamido)-4-methyl-1-(prop-2-yn-1-yloxy)pentyl)thiazole-4-carboxamido)-2-methyl-5-phenylpentanoic acid]",7.57,9.70,9.77,10.30,9.39,attenuated in potency,,,,,,,,
"CCO[C@H](C[C@H](C(C)C)N(C)C(=O)[C@@H](NC(=O)[C@H]1CCCCN1C)C1CCCCC1)c1nc(C(=O)N[C@@H](Cc2ccccc2)C[C@H](C)C(=O)O)cs1 [Compound 205, (2S,4R)-4-(2-((1R,3R)-3-((S)-2-cyclohexyl-N-methyl-2-((R)-1-methylpiperidine-2-carboxamido)acetamido)-1-ethoxy-4-methylpentyl)thiazole-4-carboxamido)-2-methyl-5-phenylpentanoic acid]",,,,,,,potent,9.30,8.15,9.30,6.75,8.70,9.00,
"CCO[C@H](C[C@H](C(C)C)N(C)C(=O)[C@@H](NC(=O)[C@H]1CCCCN1C)C1CCOCC1)c1nc(C(=O)N[C@@H](Cc2ccccc2)C[C@H](C)C(=O)O)cs1 [Compound 210, (2S,4R)-4-(2-((1R,3R)-1-ethoxy-4-methyl-3-((S)—N-methyl-2-((R)-1-methylpiperidine-2-carboxamido)-2-(tetrahydro-2H-pyran-4-yl)acetamido)pentyl)thiazole-4-carboxamido)-2-methyl-5-phenylpentanoic acid]",,,,,,,inactive against all cell lines tested,< 6.00,< 6.00,< 6.00,< 6.00,< 6.00,< 6.00,
"CCO[C@H](C[C@H](C(C)C)N(C)C(=O)[C@@H](NC(=O)[C@H]1CCCCN1C)[C@@H](C)CC)c1nc(C(=O)N[C@@H](Cc2ccccc2)C[C@H](C)C(=O)O)cs1 [Compound 41, (2S,4R)-4-(2-((1R,3R)-3-((2S,3S)—N,3-dimethyl-2-((R)-1-methylpiperidine-2-carboxamido)pentanamido)-1-ethoxy-4-methylpentyl)thiazole-4-carboxamido)-2-methyl-5-phenylpentanoic acid]",,,,,,,,,,,,,,"pIC50 (HL60/RV, MDR + AML; [5]): 8.30; pIC50 (HL60, AML; [5]): 10.30; pIC50 (L540cy, HL; Table 1 (examples), free drug): 10.30; pIC50 (Karpas299, ALCL; Table 1 (examples), 96 hours): 10.30; pIC50 (L428, MDR + HL; Table 1 (examples), 96 hours): 9.85; potency on each of the cell lines, in words ([1]; Table 1 (examples) cell lines, 96 hours): trended more potent"
"CCO[C@H](C[C@H](C(C)C)N(C)C(=O)[C@@H](NC(=O)[C@H]1[C@@H]2CC[C@@H](C2)N1C)[C@@H](C)CC)c1nc(C(=O)N[C@@H](Cc2ccccc2)C[C@H](C)C(=O)O)cs1 [Compound 219, (2S,4R)-4-(2-((1R,3R)-3-((2S,3S)—N,3-dimethyl-2-((1S,3R,4R)-2-methyl-2-azabicyclo[2.2.1]heptane-3-carboxamido)pentanamido)-1-ethoxy-4-methylpentyl)-thiazole-4-carboxamido)-2-methyl-5-phenylpentanoic acid]",,,,,,,decrease in the observed cytotoxicity,8.10,7.72,8.10,< 6.00,7.60,8.22,
